Source: patent US20240025891A1 (Celgene Corporation, priority 2020, published 2024)

Test system: Onchocerca gutturosa adult male worms
Test: Onchocerciasis in vitro screening model Onchocerca gutturosa (worm motility score and MTT/formazan colorimetry)
Conditions: Onchocerca gutturosa, read-out: O. gutt Act class

IC50 [µM]	SMILES
0.5 to 5	Oc1ccc(Nc2nc(-c3ccccn3)cs2)nc1 [Example 122, 6-(4-(pyridin-2-yl)thiazol-2-ylamino) pyridin-3-ol]
< 0.2	CCc1ccc(Nc2nc(-c3ccccn3)cs2)nc1 [Example 123, N-(5-ethylpyridin-2-yl)-4-(pyridin-2-yl)thiazol-2-amine]
< 0.2	CN1CCN(c2ccc(Nc3nc(-c4ccccn4)cs3)nc2)CC1 [Example 131, N-(5-(4-methyl-piperazin-1-yl)pyridin-2-yl)-4-(pyridin-2-yl)thiazol-2-amine]
0.5 to 5	c1ccc(-c2csc(Nc3ccc4[nH]ccc4n3)n2)nc1 [Example 135, 4-(pyridin-2-yl)-N-(1H-pyrrolo [3,2-b]pyridin-5-yl)thiazol-2-amine]
0.5 to 5	c1ccc(-c2csc(Nc3cc4cc[nH]c4cn3)n2)nc1 [Example 137, 4-(pyridin-2-yl)-N-(1H-pyrrolo [2,3-c]pyridin-5-yl)thiazol-2-amine]
< 0.2	NC(=O)c1ccnc(Nc2nc(-c3ccccn3)cs2)c1 [Example 139, 2-(4-(pyridin-2-yl)thiazol-2-ylamino) iso-nicotinamide]
0.5 to 5	FC(F)(F)c1cc(Nc2nc(-c3ccccn3)cs2)ncc1Br [Example 140, N-(5-bromo-4-(trifluoro-methyl)pyridin-2-yl)-4-(pyridin-2-yl)thiazol-2-amine]
0.2 to 0.5	O=C(NCC(F)(F)F)c1ccnc(Nc2nc(-c3ccccn3)cs2)c1 [Example 141, 2-(4-(pyridin-2-yl)thiazol-2-ylamino)-N-(2,2,2-trifluoroethyl) isonicotinamide]
0.2 to 0.5	COCCNC(=O)c1ccnc(Nc2nc(-c3ccccn3)cs2)c1 [Example 142, N-(2-methoxyethyl)-2-(4-(pyridin-2-yl)thiazol-2-ylamino) isonicotinamide]
0.2 to 0.5	O=C(c1ccnc(Nc2nc(-c3ccccn3)cs2)c1)N1CCOCC1 [Example 143, morpholino (2-(4-(pyridin-2-yl)thiazol-2-ylamino)pyridin-4-yl)methanone]
0.2 to 0.5	O=C(c1ccnc(Nc2nc(-c3ccccn3)cs2)c1)N1CCNCC1 [Example 144, piperazin-1-yl(2-(4-(pyridin-2-yl)thiazol-2-ylamino)pyridin-4-yl)methanone]
< 0.2	O=C(c1ccnc(Nc2nc(-c3ccccn3)cs2)c1)N1CCC(F)(F)CC1 [Example 145, (4,4-difluoro-piperidin-1-yl)(2-(4-(pyridin-2-yl)thiazol-2-ylamino)pyridin-4-yl)methanone]
< 0.2	CC(C)NC(=O)c1ccnc(Nc2nc(-c3ccccn3)cs2)c1 [Example 146, N-isopropyl-2-(4-(pyridin-2-yl)thiazol-2-ylamino) isonicotinamide]
< 0.2	O=C(NC1CCCC1)c1ccnc(Nc2nc(-c3ccccn3)cs2)c1 [Example 147, N-cyclopentyl-2-(4-(pyridin-2-yl)thiazol-2-ylamino) isonicotinamide]
0.2 to 0.5	C[C@@H](CO)NC(=O)c1ccnc(Nc2nc(-c3ccccn3)cs2)c1 [Example 148, (S)-N-(1-hydroxy-propan-2-yl)-2-(4-(pyridin-2-yl)thiazol-2-ylamino) isonicotinamide]
0.5 to 5	O=C1CN(C(=O)c2ccnc(Nc3nc(-c4ccccn4)cs3)c2)CCN1 [Example 149, 4-(2-(4-(pyridin-2-yl)thiazol-2-ylamino)isonicotinoyl) piperazin-2-one]

IC50 [µM]	SMILES
< 0.2	O=C(NC1CCC(C(F)(F)F)CC1)c1ccnc(Nc2nc(-c3ccccn3)cs2)c1 (stereo not shown) [Example 150, 2-(4-(pyridin-2-yl)thiazol-2-ylamino)-N-(4-(trifluoromethyl)cyclohexyl) isonicotinamide]
< 0.2	O=C(NC1CCC(F)(F)CC1)c1ccnc(Nc2nc(-c3ccccn3)cs2)c1 [Example 151, N-(4,4-difluoro-cyclohexyl)-2-(4-(pyridin-2-yl)thiazol-2-ylamino) isonicotinamide]
0.2 to 0.5	O=C(NCCN1CCCC1)c1ccnc(Nc2nc(-c3ccccn3)cs2)c1 [Example 152, 2-(4-(pyridin-2-yl)thiazol-2-ylamino)-N-(2-(pyrrolidin-1-yl)ethyl) isonicotinamide]
< 0.2	O=C(c1ccnc(Nc2nc(-c3ccccn3)cs2)c1)N1CC(F)(F)C1 [Example 153, (3,3-difluoroazetidin-1-yl)(2-(4-(pyridin-2-yl)thiazol-2-ylamino)pyridin-4-yl)methanone]
0.2 to 0.5	O=C(NCCO)c1ccnc(Nc2nc(-c3ccccn3)cs2)c1 [Example 154, N-(2-hydroxyethyl)-2-(4-(pyridin-2-yl)thiazol-2-ylamino) isonicotinamide]
< 0.2	O=C(N1CCN(c2ccc(Nc3nc(-c4ccccn4)cs3)nc2)CC1)C1(C(F)(F)F)CC1 [Example 155, (4-(6-(4-(pyridin-2-yl)thiazol-2-ylamino)pyridin-3-yl)piperazin-1-yl)(1-(trifluoromethyl)cyclopropyl) methanone]
< 0.2	CC(C)(O)C(=O)N1CCN(c2ccc(Nc3nc(-c4ccccn4)cs3)nc2)CC1 [Example 156, 2-hydroxy-2-methyl-1-(4-(6-(4-(pyridin-2-yl)thiazol-2-ylamino)pyridin-3-yl)piperazin-1-yl)propan-1-one]
0.5 to 5	O=C(O)C1CCCN(c2ccc(Nc3nc(-c4ccccn4)cs3)nc2)C1 (stereo not shown) [Example 157, 1-(6-(4-(pyridin-2-yl)thiazol-2-ylamino)pyridin-3-yl)piperidine-3-carboxylic acid]
< 0.2	CN(C)C(=O)C1CCCN(c2ccc(Nc3nc(-c4ccccn4)cs3)nc2)C1 (stereo not shown) [Example 158, N,N-dimethyl-1-(6-(4-(pyridin-2-yl)thiazol-2-ylamino)pyridin-3-yl)piperidine-3-carboxamide]
0.2 to 0.5	CNC(=O)C1CCCN(c2ccc(Nc3nc(-c4ccccn4)cs3)nc2)C1 (stereo not shown) [Example 159, N-methyl-1-(6-(4-(pyridin-2-yl)thiazol-2-ylamino)pyridin-3-yl)piperidine-3-carboxamide]
< 0.2	O=C(NCC(F)(F)F)C1CCCN(c2ccc(Nc3nc(-c4ccccn4)cs3)nc2)C1 (stereo not shown) [Example 160, 1-(6-(4-(pyridin-2-yl)thiazol-2-ylamino)pyridin-3-yl)-N-(2,2,2-trifluoroethyl) piperidine-3-carboxamide]
< 0.2	Cn1cc(-c2ccnc(Nc3nc(-c4ccccn4)cs3)c2)cn1 [Example 161, N-(4-(1-methyl-1H-pyrazol-4-yl)pyridin-2-yl)-4-(pyridin-2-yl)thiazol-2-amine]
< 0.2	Cc1sc(Nc2cc(C(F)(F)F)ccn2)nc1-c1ccccn1 [Example 162, 5-methyl-4-(pyridin-2-yl)-N-(4-(trifluoromethyl)pyridin-2-yl) thiazol-2-amine]
< 0.2	FC(F)(F)c1ccnc(Nc2nc(-c3ccccn3)c(CN3CCCCC3)s2)c1 [Example 164, 5-(piperidin-1-ylmethyl)-4-(pyridin-2-yl)-N-(4-(trifluoromethyl)pyridin-2-yl)thiazol-2-amine]
< 0.2	OCc1sc(Nc2cc(C(F)(F)F)ccn2)nc1-c1ccccn1 [Example 165, (4-(pyridin-2-yl)-2-(4-(trifluoromethyl)pyridin-2-ylamino)thiazol-5-yl)methanol]
0.2 to 0.5	FC(F)(F)c1ccnc(Nc2nc(-c3ccccn3)c(COCC3CC3)s2)c1 [Example 166, 5-((cyclopropyl-methoxy)methyl)-4-(pyridin-2-yl)-N-(4-(trifluoromethyl)pyridin-2-yl) thiazol-2-amine]

SMILES	IC50 [µM]
Cc1cnc(Nc2nc(-c3ccccn3)cs2)c(C)c1 [Example 124, N-(3,5-dimethyl-pyridin-2-yl)-4-(pyridin-2-yl)thiazol-2-amine]	< 0.2
c1ccc(-c2cccnc2Nc2nc(-c3ccccn3)cs2)cc1 [Example 125, N-(3-phenylpyridin-2-yl)-4-(pyridin-2-yl)thiazol-2-amine]	0.5 to 5
c1ccc(-c2ccnc(Nc3nc(-c4ccccn4)cs3)c2)cc1 [Example 126, N-(4-phenylpyridin-2-yl)-4-(pyridin-2-yl)thiazol-2-amine]	< 0.2
CC(C)c1cnc(Nc2nc(-c3ccccn3)cs2)cc1C(F)(F)F [Example 127, N-(5-isopropyl-4-(trifluoro-methyl)pyridin-2-yl)-4-(pyridin-2-yl)thiazol-2-amine]	0.5 to 5
c1ccc(-c2csc(Nc3cc4ccccc4cn3)n2)nc1 [Example 128, N-(isoquinolin-3-yl)-4-(pyridin-2-yl)thiazol-2-amine]	< 0.2
Cc1cnc(Nc2nc(-c3ccccn3)cs2)cc1C(F)(F)F [Example 129, N-(5-methyl-4-(trifluoro-methyl)pyridin-2-yl)-4-(pyridin-2-yl)thiazol-2-amine]	< 0.2
CCc1cnc(Nc2nc(-c3ccccn3)cs2)cc1C(F)(F)F [Example 130, N-(5-ethyl-4-(trifluoro-methyl)pyridin-2-yl)-4-(pyridin-2-yl)thiazol-2-amine]	< 0.2
Cc1ccnc(Nc2nc(-c3ccccn3)c(C)s2)c1 [Example 132, 5-methyl-N-(4-methyl-pyridin-2-yl)-4-(pyridin-2-yl)thiazol-2-amine]	0.2 to 0.5
c1ccc(-c2csc(Nc3ccc4cc[nH]c4n3)n2)nc1 [Example 134, 4-(pyridin-2-yl)-N-(1H-pyrrolo [2,3-b]pyridin-6-yl)thiazol-2-amine]	< 0.2
c1ccc(-c2csc(Nc3cc4[nH]ccc4cn3)n2)nc1 [Example 136, 4-(pyridin-2-yl)-N-(1H-pyrrolo [3,2-c]pyridin-6-yl)thiazol-2-amine]	< 0.2
c1ccc(-c2csc(Nc3ccc(C4CCCC4)cn3)n2)nc1 [Example 138, N-(5-cyclopentyl-pyridin-2-yl)-4-(pyridin-2-yl)thiazol-2-amine]	< 0.2
CCCCc1ccnc(Nc2nc(-c3ccccn3)cs2)c1 [Example 167, N-(4-butylpyridin-2-yl)-4-(pyridin-2-yl)thiazol-2-amine]	< 0.2
c1ccc(-c2csc(Nc3cc(C4CCC4)ccn3)n2)nc1 [Example 168, N-(4-cyclobutyl-pyridin-2-yl)-4-(pyridin-2-yl)thiazol-2-amine]	< 0.2
c1ccc(-c2csc(Nc3cc(-c4cccnn4)ccn3)n2)nc1 [Example 169, N-(4-(pyridazin-3-yl)pyridin-2-yl)-4-(pyridin-2-yl)thiazol-2-amine]	< 0.2
